pKd: −log10 of the molar value. Bridge positions count the residues as written; N and C are the ends. Square brackets hold non-standard residues; d marks the D form. Peptide text beside a SMILES is read from it. * marks the point of attachment. X1 = O=C(O)CN1CCN(CC(=O)O)CC(Cc2ccc(NC(=S)*)cc2)N(CC(=O)O)CC1; NMeF = CN[C@@H](Cc1ccccc1)C(=O)O; Propionyl = CCC(=O)*
The compounds below were run against human Granzyme B (hGranzyme B) (Homo sapiens, UniProt P10144) (assay: Surface Plasmon Resonance (SPR) binding to human Granzyme B). Conditions: Table 8, 25° C.
Chain of human Granzyme B (hGranzyme B) (P10144 21-247): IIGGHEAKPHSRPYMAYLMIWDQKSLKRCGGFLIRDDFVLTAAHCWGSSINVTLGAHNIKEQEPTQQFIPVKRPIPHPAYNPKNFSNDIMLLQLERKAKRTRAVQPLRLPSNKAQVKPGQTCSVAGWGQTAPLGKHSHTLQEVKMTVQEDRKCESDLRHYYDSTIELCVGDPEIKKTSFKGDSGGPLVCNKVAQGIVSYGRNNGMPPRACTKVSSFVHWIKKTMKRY
Description: All reagents and solvents were purchased from commercial sources and used “as is” unless otherwise noted. Reaction progress and synthetic intermediate analysis were assessed by LCMS (UV detection with ESI, APCI, or other mass detection) when applicable using a MeCN/water gradient with either TFA, formic acid, or NH4HCO3 modifier. Silica gel and reverse-phase flash column chromatography were conducted with commercially available pre-packed columns. Reverse-phase preparative HPLC purification was performed on preparative HPLC instruments with UV and MS detection using a MeCN/water gradient with either TFA, formic acid, or NH4OH modifier. Unless otherwise noted, all KD data presented in tables refers to the surface plasmon resonance assay that is described in the Biological Assay section.
The kinetics of test peptide binding to human Granzyme B (hGranzyme B) was determined by SPR. All experiments were performed at 25° C. using the Biacore 8k+ instrument (Cytiva, Marlborough, MA). The Biacore 8k+ Insight Evaluation Software Version 3.0 was used to fit the data with a 1:1 binding model to determine the association rate constant ka (M^−1s^−1, where “M” equals molar and “s” equals seconds) and the dissociation rate constant kd (s^−1). These rate constants were used to calculate the equilibrium dissociation constant, KD (M)=kd/ka. To measure the binding kinetics of peptides of interest, surfaces were prepared by a capture method to a Series S Streptavidin (SA) chip using a 1×HBS-EP+ running buffer (Cytiva). hGranzyme B was diluted to 10 μg/mL in 1×HBS-EP+ and flowed over spot 2 of each flow cell on the chip at a flow rate of 10 μl/min for 20 s to achieve a level of capture of ~1100 RU. An unmodified spot 1 of each flow cell was used as a matrix binding control or reference surface. Binding kinetics were measured using single cycle kinetics at 25° C. by injecting 5 concentrations with 3-fold serial dilutions of test peptides from […] to 1 μM. Compound dilutions were performed manually in a running buffer containing 1×HBS-EP+(Cytiva), and a final concentration of 2% DMSO. The interaction analyses over hGranzyme B, were performed using a 120 s association time and a 900 s dissociation time. All experiments were conducted at a flow rate of […] with a data collection rate of 10 Hz.
Peptide dilution series included 2 zero concentration points (no compound) which were averaged and subtracted from the peptide concentration injection as DMSO control responses. Binding data acquired from the reference surface (matrix binding control) were subtracted from the binding data for hGranzyme B surface on the chip to determine specific binding. Next, the association phase data were solvent corrected to account for any signal fluctuation throughout the experiment due to subtle DMSO concentration differences. Corrected response data were analyzed using the Biacore 8k+ Evaluation Software Version 3.0 according to the manufacturer. SPR data for representative compounds of the disclosure are found in Table 8.
In the case of `CC(C)[C@@H]1NC(=O)[C@H](CC(=O)O)NC(=O)[C@H](Cc2ccc(O)cc2)NC(=O)[C@H](Cc2ccc(O)cc2)NC(=O)[C@H](Cc2ccccc2)N(C)C(=O)[C@H](Cc2ccccc2)N(C)C(=O)[C@H](Cc2ccccc2)NC(=O)CSC[C@@H](C(=O)NCC(=O)NCC(=O)N[C@@H](CCCCN)C(N)=O)NC(=O)[C@H](Cc2c[nH]cn2)NC(=O)[C@H](Cc2ccccc2)N(C)C(=O)[C@H](Cc2ccc(O)cc2)NC(=O)[C@H](C(C)C)NC(=O)[C@H](CC(=O)O)NC(=O)[C@H](C(C)C)NC(=O)[C@H](CC(=O)O)NC1=O` [Compound 2a, *F.NMeF.NMeF.Y.Y.D.V.D.V.D.V.Y.NMeF.H.*C.G.G.K-NH2] ({CH2CO}-F[NMeF][NMeF]YYDVDVDVY[NMeF]HCGGK-NH2; thioether N-15), the pKd was 8.96. For `CC(C)[C@@H]1NC(=O)[C@H](CC(=O)O)NC(=O)[C@H](Cc2ccc(O)cc2)NC(=O)[C@H](Cc2ccc(O)cc2)NC(=O)[C@H](Cc2ccccc2)N(C)C(=O)[C@H](Cc2ccccc2)N(C)C(=O)[C@H](Cc2ccccc2)NC(=O)CSC[C@@H](C(=O)NCC(=O)NCC(=O)N[C@@H](CCCCNC(=S)Nc2ccc(CC3CN(CC(=O)O)CCN(CC(=O)O)CCN3CC(=O)O)cc2)C(N)=O)NC(=O)[C@H](Cc2c[nH]cn2)NC(=O)[C@H](Cc2ccccc2)N(C)C(=O)[C@H](Cc2ccc(O)cc2)NC(=O)[C@H](C(C)C)NC(=O)[C@H](CC(=O)O)NC(=O)[C@H](C(C)C)NC(=O)[C@H](CC(=O)O)NC1=O` (stereo partly shown) [Compound 3a, *F.NMeF.NMeF.Y.Y.D.V.D.V.D.V.Y.NMeF.H.*C.G.G.K(NOTA)-NH2] ({CH2CO}-F[NMeF][NMeF]YYDVDVDVY[NMeF]HCGGK(X1)-NH2; thioether N-15), the pKd was 9.00. `CCC(=O)NCCCC[C@H](NC(=O)CNC(=O)CNC(=O)[C@@H]1CSCC(=O)N[C@@H](Cc2ccccc2)C(=O)N(C)[C@@H](Cc2ccccc2)C(=O)N(C)[C@@H](Cc2ccccc2)C(=O)N[C@@H](Cc2ccc(O)cc2)C(=O)N[C@@H](Cc2ccc(O)cc2)C(=O)N[C@@H](CC(=O)O)C(=O)N[C@@H](C(C)C)C(=O)N[C@@H](CC(=O)O)C(=O)N[C@@H](C(C)C)C(=O)N[C@@H](CC(=O)O)C(=O)N[C@@H](C(C)C)C(=O)N[C@@H](Cc2ccc(O)cc2)C(=O)N(C)[C@@H](Cc2ccccc2)C(=O)N[C@@H](Cc2c[nH]cn2)C(=O)N1)C(N)=O` [Compound 4a, *F.NMeF.NMeF.Y.Y.D.V.D.V.D.V.Y.NMeF.H.*C.G.G.K(Prop)-NH2] ({CH2CO}-F[NMeF][NMeF]YYDVDVDVY[NMeF]HCGGK(Propionyl)-NH2; thioether N-15) gave a pKd of 8.96. `CC(C)[C@@H]1NC(=O)[C@H](CC(=O)O)NC(=O)[C@H](Cc2ccc(O)cc2)NC(=O)[C@H](Cc2ccc(O)cc2)NC(=O)[C@H](Cc2ccccc2)N(C)C(=O)[C@H](Cc2ccccc2)N(C)C(=O)[C@H](Cc2ccccc2)NC(=O)CSC[C@@H](C(=O)NCC(=O)NCC(=O)N[C@@H](CCCCNC(=S)Nc2ccc(CC3CN(CC(=O)O)CCN(CC(=O)O)CCN3CC(=O)O)cc2)C(N)=O)NC(=O)[C@H](Cc2c[nH]cn2)NC(=O)[C@H](Cc2ccccc2)N(C)C(=O)[C@H](Cc2ccc(O)cc2)NC(=O)[C@H](C(C)C)NC(=O)[C@H](CC(=O)O)NC(=O)[C@H](C)NC(=O)[C@H](CC(=O)O)NC1=O` (stereo partly shown) [Compound 8a, *F.NMeF.NMeF.Y.Y.D.V.D.A.D.V.Y.NMeF.H.*C.G.G.K(NOTA)-NH2] ({CH2CO}-F[NMeF][NMeF]YYDVDADVY[NMeF]HCGGK(X1)-NH2; thioether N-15) showed a pKd of 8.43. Work on `CC(C)[C@@H]1NC(=O)[C@H](CC(=O)O)NC(=O)[C@H](Cc2ccc(O)cc2)NC(=O)[C@H](Cc2ccc(O)cc2)NC(=O)[C@H](C)NC(=O)[C@H](Cc2ccccc2)N(C)C(=O)[C@H](Cc2ccccc2)NC(=O)CSC[C@@H](C(=O)NCC(=O)NCC(=O)N[C@@H](CCCCN)C(N)=O)NC(=O)[C@H](Cc2c[nH]cn2)NC(=O)[C@H](Cc2ccccc2)N(C)C(=O)[C@H](Cc2ccc(O)cc2)NC(=O)[C@H](C(C)C)NC(=O)[C@H](CC(=O)O)NC(=O)[C@H](C(C)C)NC(=O)[C@H](CC(=O)O)NC1=O` [Compound 9a, *F.NMeF.A.Y.Y.D.V.D.V.D.V.Y.NMeF.H.*C.G.G.K-NH2] ({CH2CO}-F[NMeF]AYYDVDVDVY[NMeF]HCGGK-NH2; thioether N-15) yielded a pKd of 6.73. With `CC(C)[C@@H]1NC(=O)[C@H](CC(=O)O)NC(=O)[C@H](C)NC(=O)[C@H](Cc2ccc(O)cc2)NC(=O)[C@H](Cc2ccccc2)N(C)C(=O)[C@H](Cc2ccccc2)N(C)C(=O)[C@H](Cc2ccccc2)NC(=O)CSC[C@@H](C(=O)NCC(=O)N[C@@H](CCCCN)C(N)=O)NC(=O)[C@H](Cc2c[nH]cn2)NC(=O)[C@H](Cc2ccccc2)N(C)C(=O)[C@H](Cc2ccc(O)cc2)NC(=O)[C@H](C(C)C)NC(=O)[C@H](CC(=O)O)NC(=O)[C@H](C(C)C)NC(=O)[C@H](CC(=O)O)NC1=O` [Compound 10a, *F.NMeF.NMeF.Y.A.D.V.D.V.D.V.Y.NMeF.H.*C.G.K-NH2] ({CH2CO}-F[NMeF][NMeF]YADVDVDVY[NMeF]HCGK-NH2; thioether N-15) the pKd was 9.00. For `CC(C)[C@@H]1NC(=O)[C@H](CC(=O)O)NC(=O)[C@H](C)NC(=O)[C@H](Cc2ccc(O)cc2)NC(=O)[C@H](Cc2ccccc2)N(C)C(=O)[C@H](Cc2ccccc2)N(C)C(=O)[C@H](Cc2ccccc2)NC(=O)CSC[C@@H](C(=O)NCC(=O)N[C@@H](CCCCN)C(=O)N[C@@H](CCCCN)C(N)=O)NC(=O)[C@H](Cc2c[nH]cn2)NC(=O)[C@H](Cc2ccccc2)N(C)C(=O)[C@H](Cc2ccc(O)cc2)NC(=O)[C@H](C(C)C)NC(=O)[C@H](CC(=O)O)NC(=O)[C@H](C(C)C)NC(=O)[C@H](CC(=O)O)NC1=O` [Compound 11a, *F.NMeF.NMeF.Y.A.D.V.D.V.D.V.Y.NMeF.H.*C.G.K.K-NH2] ({CH2CO}-F[NMeF][NMeF]YADVDVDVY[NMeF]HCGKK-NH2; thioether N-15), the pKd was 8.68. `CC(C)[C@@H]1NC(=O)[C@H](CC(=O)O)NC(=O)[C@H](Cc2ccc(O)cc2)NC(=O)[C@H](Cc2ccc(O)cc2)NC(=O)[C@H](Cc2ccccc2)N(C)C(=O)[C@H](Cc2ccccc2)N(C)C(=O)[C@H](Cc2ccccc2)NC(=O)CSC[C@@H](C(=O)NCC(=O)N[C@@H](CCCCN)C(N)=O)NC(=O)[C@H](Cc2c[nH]cn2)NC(=O)[C@H](Cc2ccccc2)N(C)C(=O)[C@H](Cc2ccc(O)cc2)NC(=O)[C@H](C(C)C)NC(=O)[C@H](CC(=O)O)NC(=O)[C@H](C(C)C)NC(=O)[C@H](CC(=O)O)NC1=O` [Compound 12a, *F.NMeF.NMeF.Y.Y.D.V.D.V.D.V.Y.NMeF.H.*C.G.K-NH2] ({CH2CO}-F[NMeF][NMeF]YYDVDVDVY[NMeF]HCGK-NH2; thioether N-15) showed a pKd of 8.59. `CC(C)[C@@H]1NC(=O)[C@H](CC(=O)O)NC(=O)[C@H](Cc2ccc(O)cc2)NC(=O)[C@H](Cc2ccc(O)cc2)NC(=O)[C@H](Cc2ccccc2)N(C)C(=O)[C@H](Cc2ccccc2)N(C)C(=O)[C@H](Cc2ccccc2)NC(=O)CSC[C@@H](C(=O)NCC(=O)N[C@@H](CCCCN)C(=O)N[C@@H](CCCCN)C(N)=O)NC(=O)[C@H](Cc2c[nH]cn2)NC(=O)[C@H](Cc2ccccc2)N(C)C(=O)[C@H](Cc2ccc(O)cc2)NC(=O)[C@H](C(C)C)NC(=O)[C@H](CC(=O)O)NC(=O)[C@H](C(C)C)NC(=O)[C@H](CC(=O)O)NC1=O` [Compound 13a, *F.NMeF.NMeF.Y.Y.D.V.D.V.D.V.Y.NMeF.H.*C.G.K.K-NH2] ({CH2CO}-F[NMeF][NMeF]YYDVDVDVY[NMeF]HCGKK-NH2; thioether N-15) showed a pKd of 10.00. Compound `CC(C)[C@@H]1NC(=O)[C@H](CC(=O)O)NC(=O)[C@H](Cc2ccc(O)cc2)NC(=O)[C@H](Cc2ccc(O)cc2)NC(=O)[C@H](Cc2ccccc2)N(C)C(=O)[C@H](Cc2ccccc2)N(C)C(=O)[C@H](Cc2ccccc2)NC(=O)CSC[C@@H](C(=O)NCC(N)=O)NC(=O)[C@H](C)NC(=O)[C@H](Cc2ccccc2)N(C)C(=O)[C@H](Cc2ccc(O)cc2)NC(=O)[C@H](C(C)C)NC(=O)[C@H](CC(=O)O)NC(=O)[C@H](C(C)C)NC(=O)[C@H](CC(=O)O)NC1=O` [Compound 14a, *F.NMeF.NMeF.Y.Y.D.V.D.V.D.V.Y.NMeF.A.*C.G-NH2] ({CH2CO}-F[NMeF][NMeF]YYDVDVDVY[NMeF]ACG-NH2; thioether N-15) has a pKd of 9.10.

— patent US20260297134A1, “CYCLIC PEPTIDES AS PET IMAGING AGENTS OF GRANZYME B” (Merck Sharp & Dohme LLC, priority 2023, published 2026)
